From ChEMBL document CHEMBL6109137, “Design, Synthesis, Evaluation, and SAR of 5-Phenylisoindoline Derivatives, a Potent Class of Small-Molecule Inhibitors Targeting the Programmed Cell Death-1/Programmed Cell Death-Ligand 1 (PD-1/PD-L1) Interaction” (J Med Chem, 2025)
Calls of active or inactive are those of the source. The calls are words filed in the database; no cut-off is given here.

Assays:
Mus musculus = assay: Restoration of immune function in C57BL/6J mouse implanted with mouse MC38 cells assessed as increase in serum TNF-alpha level administered intraperitoneally once daily for 13 days by ELISA; assay type: functional, organism-based; conditions: dose 5-20 mg/kg, route ip, time 13.0 day
[1] = Toxicity in C57BL/6J mouse implanted with mouse MC38 cells assessed as change in lung index at 5 to 20 mg/kg, ip qd for 13 days; assay type: organism-based; conditions: in vivo, 312 h, dose 5-20 mg/kg, time 13 day
PBMC = assay: Inhibition of apoptosis in human PBMC cells assessed as reduction in PD-L1-induced proportion of terminal phase apoptotic cells by flow cytometry; assay type: functional, cell-based
[2] = Toxicity in C57BL/6J mouse implanted with mouse MC38 cells assessed as change in body weight at 5 to 20 mg/kg, ip qd for 13 days; assay type: organism-based; conditions: in vivo, 312 h, dose 5-20 mg/kg, time 13 day
[3] = Toxicity in C57BL/6J mouse implanted with mouse MC38 cells assessed as injury in heart at 5 to 20 mg/kg, ip qd for 13 days by H and E staining based analysis; assay type: organism-based; conditions: in vivo, 312 h, dose 5-20 mg/kg, time 13 day
[4] = Toxicity in C57BL/6J mouse implanted with mouse MC38 cells assessed as change in RBC count at 40 to 160 mg/kg, IG qd for 7 days; assay type: organism-based; conditions: in vivo, po, 168 h, dose 40-160 mg/kg, time 7 day
[5] = Cytotoxicity against human BEAS-2B cells measured after 48 hrs by MTT assay; assay type: toxicity, cell-based
[6] = Toxicity in C57BL/6J mouse implanted with mouse MC38 cells assessed as change in excised body weight at 5 to 20 mg/kg, ip qd for 13 days; assay type: organism-based; conditions: in vivo, 312 h, dose 5-20 mg/kg, time 13 day
[7] = Toxicity in C57BL/6J mouse implanted with mouse MC38 cells assessed as injury in kidney at 5 to 20 mg/kg, ip qd for 13 days by H and E staining based analysis; assay type: organism-based; conditions: in vivo, 312 h, dose 5-20 mg/kg, time 13 day

With `C[C@H](N)C(=O)N1Cc2ccc(-c3cccc(-c4ccc5c(c4)OCCO5)c3Cl)cc2C1.Cl` the Activity (Mus musculus) was “Dose-dependent-effect”, the Activity [1] was “Non-toxic” and the inhibition (PBMC) was “Active”. The Activity [2] was “Non-toxic”, the Activity [3] was “Non-toxic” and the Activity [4] was “Non-toxic”. The IC50 at 48 h [5] was over 10 µM, the Activity [6] was “Non-toxic” and the Activity [7] was “Non-toxic”.
